Data: patent US9867802B2, “Method of treating Scedosporium spp. infection” (BIODIEM LIMITED, priority 2012, dated 2018)
Values after ≈ are worked out from the molar mass of the structure shown. Read-outs that look alike come from different tables or passages of the source.

Key:
Scedosporium prolificans = test: In vitro susceptibility (MIC) against Scedosporium spp.; assay type: cell-based; settings: for MIC: Lomentospora prolificans, duplicate on two occasions, read-out: Arithmetic Mean MIC (mg/L) of 4 readings
Procedure: (§1) In vitro susceptibility to Compound (1) was assessed against Scedosporium spp. A stock solution of 1 mg/ml of Compound (1) was made in 100% DMSO. The stock was aliquoted and stored at −80° C.
(§2) Three strains Scedosporium prolificans and 3 strains of S. apiospermum/P. boydii were tested. Each isolate was tested in duplicate and on two separate occasions.

S. apiospermum = test: as above; assay type: cell-based
Procedure: as §1, §2

P. boydii = test: as above; assay type: cell-based, Pseudallescheria boydii; settings: strain P. boydii 01-10-1391979, duplicate on two occasions, read-out: Arithmetic Mean MIC (mg/L) of 4 readings
Procedure: as §1, §2

| Compound | MIC (Scedosporium prolificans; strain S. prolificans 04-11-1472398) [mg/L] | MIC (Scedosporium prolificans; strain S. prolificans (Austin Pathology)) [mg/L] | MIC (Scedosporium prolificans; strain S. prolificans MB 10028425) [mg/L] | Relative activity among Scedosporium spp. (Scedosporium prolificans; comparison of species tested in Table 1) | MIC (S. apiospermum; read-out: Arithmetic Mean MIC (mg/L) of 4 readings, strain S. apsiopermum 04-10-2013595, duplicate on two occasions) [mg/L] | MIC (S. apiospermum; strain S. apiospermum 04-10-1932310, duplicate on two occasions, read-out: Arithmetic Mean MIC (mg/L) of 4 readings) [mg/L] | MIC (P. boydii) [mg/L] | Solubility in organic solvents (Solubility profile; acetone, alcohol, acetic acid and a majority of organic solvents) | Solubility in water (Solubility profile; water) |
| --- | --- | --- | --- | --- | --- | --- | --- | --- | --- |
| C/C(=C\c1ccc2c(c1)OCO2)[N+](=O)[O-] [Compound (1), 3,4-methylenedioxy-β-methyl-β-nitrostyrene] | 2 (≈ 9.65 µM) | 1 (≈ 4.83 µM) | 2 (≈ 9.65 µM) | most active against S. prolificans | 2 (≈ 9.65 µM) | 4 (≈ 19.3 µM) | 4 (≈ 19.3 µM) |  |  |
| O=[N+]([O-])/C=C/c1ccc2c(c1)OCO2 [Compound (2), 3,4-methylenedioxy-β-nitrostyrene] |  |  |  |  |  |  |  | soluble | non-soluble |
